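Cells were grown in 96-well plates and exposed to each compound for 48 hours at five concentrations; endpoints were interpolated linearly between bracketing concentrations, or set to the highest concentration if not reached. GI50 is the concentration that inhibits growth by half.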 Activity calls are given as the source filed them. No stated cut-off is given here; in the data, active = GI50 up to about 1.1 µM and inactive = higher.

The record followed here is ChEMBL document CHEMBL1201862, “PubChem BioAssay data set” (2004).

What all share (test): inhibition of tumour cell growth, NCI panel, 48 h
Experiment [1] deals with HCC 2998.
The test system of experiment [2] is HOP-92.
The test system of experiment [3] is SN12C.
In experiment [4] the test system is M14.
Experiment [5] has as its system SW-620.
In experiment [6] the test system is A549.
The test system of experiment [7] is OVCAR-8.
Experiment [8] has as its system HT-29.
Experiment [9] relates to CCRF-CEM.
Experiment [10] has as its system KM12.
Experiment [11] has as its system HL-60.
Experiment [12] relates to ACHN.
Experiment [13] deals with K562.
The test system of experiment [14] is HOP-62.
Experiment [15] deals with SF-268.
Experiment [16] deals with Malme-3M.
Experiment [17] has as its system U-251.
The subject of experiment [18] is HCT-15.

For `COC1=CC(=O)OC(/C=C(C)/C=C/C2=C(C)CCCC2(C)C)C1` (centres undefined), the GI50 in [1], in experiment [2], in experiment [3], in experiment [4], in experiment [5] and in experiment [6] was > 100 µM (inactive) each time. In addition, the GI50 in experiment [7], in [8], in experiment [9], in [10], in experiment [11] and in experiment [12] was > 100 µM (inactive) throughout. The GI50 in experiment [13], in [14], in experiment [15], in [16] and in experiment [17] was > 100 µM (inactive) each time.

For `C/C(CC(=O)CCC(=O)Nc1cccc(C(F)(F)F)c1)=N\NC(=O)NN`, the GI50 in experiment [1] is > 100 µM (inactive); in experiment [2], > 100 µM (inactive); in experiment [18], over 100 µM; in experiment [3], > 100 µM (inactive); in experiment [4], > 100 µM (inactive); in experiment [5], > 100 µM (inactive). Further, the GI50 in [6], in experiment [7], in [8], in [9], in [10] and in experiment [11] was > 100 µM (inactive) throughout. Besides, the GI50 in experiment [12], in [13], in [14], in [15], in [16] and in [17] was > 100 µM (inactive) in each case.

With `O=C1CCCC/C1=C/C=C/c1ccccc1`, the GI50 in experiment [1] was > 100 µM (inactive); in experiment [2], 58.5 µM (inactive); in [3] it was > 100 µM (inactive); in experiment [4], 58.9 µM (inactive); in experiment [5], 41.6 µM (inactive); in experiment [6], 52.5 µM (inactive). The GI50 was 84.1 µM (inactive) in experiment [7]; 49.3 µM (inactive) in experiment [8]; 34.6 µM (inactive) in experiment [9]; 42.2 µM (inactive) in experiment [10]; 25.9 µM (inactive) in experiment [11]; 71.4 µM (inactive) in experiment [12]. The GI50 in experiment [13] is 32.4 µM (inactive); in experiment [15], 59.7 µM (inactive); in experiment [16] it was 87.9 µM (inactive); in experiment [17], 83 µM (inactive).

On to `Nc1nc(NC2C=C(CO)C(O)C2O)c([N+](=O)[O-])c(=O)[nH]1` (centres undefined), for which the GI50 in experiment [1] is > 100 µM (inactive); in experiment [2], > 100 µM (inactive); in [18], over 100 µM; in experiment [3] it was > 100 µM (inactive); in experiment [4] it was > 100 µM (inactive); in experiment [5], > 100 µM (inactive). Further, the GI50 in [6], in experiment [7], in experiment [8], in experiment [9], in experiment [10] and in experiment [12] was > 100 µM (inactive) each time. Also, the GI50 in experiment [13], in experiment [14], in [15], in experiment [16] and in experiment [17] was > 100 µM (inactive) in each case.

Take `O=C(O[C@H]1[C@@H]2C=CO[C@@H](OC3OC(CO)C(O)C(O)C3O)[C@@H]2[C@@]2(CO)O[C@@H]12)c1ccc(O)c(O)c1` (some centres undefined): the GI50 in experiment [1], in [2], in experiment [3], in experiment [4], in [5] and in experiment [6] was > 100 µM (inactive) throughout. Moreover, the GI50 in [7], in experiment [8], in experiment [9], in experiment [10], in [11] and in experiment [12] was > 100 µM (inactive) each time. For the same molecule, the GI50 in experiment [13], in experiment [14], in experiment [15], in experiment [16] and in experiment [17] was > 100 µM (inactive) throughout.

For the molecule `COc1ccc(/C=C/c2nnc(S)[nH]2)cc1`, the GI50 in [1] is > 100 µM (inactive); in [2] it was > 100 µM (inactive); in experiment [18], over 100 µM; in experiment [3], > 100 µM (inactive); in experiment [4] it was > 100 µM (inactive); in experiment [5], > 100 µM (inactive). Also, the GI50 in experiment [6], in experiment [7], in experiment [8], in experiment [9], in [11] and in experiment [12] was > 100 µM (inactive) throughout. The GI50 in experiment [13], in [15], in [16] and in [17] was > 100 µM (inactive) in each case.

For the molecule `Cc1nc(C(N)=S)sc1C(=O)/C=C/c1c(O)ccc2ccccc12`, the GI50 in experiment [1] is > 100 µM (inactive); in experiment [2], > 74.1 µM (inactive); in [18], over 95.9 µM; in [3], > 88.1 µM (inactive); in experiment [4] it was > 100 µM (inactive); in [5], 39.4 µM (inactive). For the same molecule, the GI50 was > 100 µM (inactive) in [6]; 68.5 µM (inactive) in experiment [7]; > 100 µM (inactive) in experiment [8]; 21.6 µM (inactive) in experiment [9]; 31.3 µM (inactive) in experiment [10]; 22.1 µM (inactive) in experiment [11]. For the same molecule, the GI50 in experiment [12] was > 100 µM (inactive); in experiment [13], 25.9 µM (inactive); in [14] it was > 100 µM (inactive); in experiment [15], 28.5 µM (inactive); in [16], > 90.2 µM (inactive); in experiment [17], > 100 µM (inactive).

Turning to `COc1cc(C=O)c(-c2cc(OC)c(OC)cc2C=O)cc1OC`, the GI50 is > 100 µM (inactive) in experiment [1]; > 100 µM (inactive) in experiment [2]; over 100 µM in [18]; > 100 µM (inactive) in experiment [3]; > 100 µM (inactive) in experiment [4]; 78 µM (inactive) in experiment [5]. Moreover, the GI50 in [6] was > 100 µM (inactive); in experiment [7], 91.4 µM (inactive); in [8] it was 76.2 µM (inactive); in [9], 30.1 µM (inactive); in [10] it was > 100 µM (inactive); in experiment [11], 36.8 µM (inactive). In addition, the GI50 in experiment [12] is > 100 µM (inactive); in experiment [13], 36.7 µM (inactive); in experiment [14] it was > 100 µM (inactive); in [15], 46.7 µM (inactive); in [16] it was > 100 µM (inactive); in [17] it was > 100 µM (inactive).

`Cc1ccc(C(=O)/C=C/c2ccccc2Cl)cc1`: the GI50 in [1] is 18.5 µM (inactive); in [2], 30.1 µM (inactive); in experiment [18], 15 µM; in experiment [3] it was 20.6 µM (inactive); in experiment [4], 17.6 µM (inactive); in [5], 13.6 µM (inactive). The GI50 in experiment [6] was 33.7 µM (inactive); in experiment [7] it was 15.8 µM (inactive); in experiment [8], 15.8 µM (inactive); in experiment [9] it was 18.8 µM (inactive); in experiment [10] it was 15.7 µM (inactive); in experiment [11], 16.4 µM (inactive). The GI50 in experiment [12] is 15.9 µM (inactive); in [13], 19.7 µM (inactive); in experiment [14] it was 68.5 µM (inactive); in experiment [15], 20.5 µM (inactive); in experiment [16], 23.5 µM (inactive); in experiment [17], 14.7 µM (inactive).

As to `C#CC[N+](C)(CC#C)CC#C`, the GI50 in [1] was > 100 µM (inactive); in experiment [2] it was > 100 µM (inactive); in experiment [18], over 100 µM; in experiment [3], > 100 µM (inactive); in [4], > 100 µM (inactive); in experiment [5] it was > 100 µM (inactive). Moreover, the GI50 in [6], in [7], in experiment [8], in [9], in experiment [10] and in experiment [11] was > 100 µM (inactive) throughout. For the same molecule, the GI50 in experiment [12], in [13], in [14], in experiment [15] and in experiment [16] was > 100 µM (inactive) each time.

For the molecule `CCCCCCCCCCCCCCCCCCOCC(C[N+]1(C)CCC(O)CC1)OCC` (centres undefined), the GI50 in [1] was 12.7 µM (inactive); in experiment [2], 1.78 µM (inactive); in experiment [3], 4.06 µM (inactive); in experiment [4], 9.51 µM (inactive); in experiment [5] it was 5.48 µM (inactive); in [6], 5.87 µM (inactive). The GI50 is 4.2 µM (inactive) in experiment [7]; 3.37 µM (inactive) in [8]; 1.97 µM (inactive) in [9]; 1.84 µM (inactive) in experiment [10]; 1.79 µM (inactive) in experiment [11]; 4.17 µM (inactive) in experiment [13]. The GI50 is 4.23 µM (inactive) in experiment [14], 3.39 µM (inactive) in experiment [15] and 12.3 µM (inactive) in [16].

`Cc1cc(OC(=O)c2c(C)cc(OC(=O)c3c(C)cc(O)cc3O)cc2O)cc(O)c1C(=O)O` [GYROPHORIC ACID]: the GI50 in [1] was > 100 µM (inactive); in [2], 69.5 µM (inactive); in experiment [3], > 100 µM (inactive); in experiment [4], > 100 µM (inactive); in [5] it was > 100 µM (inactive); in experiment [6] it was > 100 µM (inactive). The GI50 in [7], in [8], in experiment [9], in experiment [10], in [11] and in experiment [12] was > 100 µM (inactive) each time. Moreover, the GI50 in experiment [13], in experiment [14], in experiment [15], in experiment [16] and in experiment [17] was > 100 µM (inactive) in each case.
